Experimental data taken from US10639345B2, “Compositions for preserving photoreceptor cells, retinal pigment epithelial cells, or visual function” (Massachusetts Eye and Ear Infirmary, priority 2010, dated 2020).
Where a SMILES comes first, the peptide text is derived from it. The star is where a group is joined. Cbz = O=C(OCc1ccccc1)*; CH2F = FC*

Legend:
photoreceptors [1] = test: Poly I:C-induced dry AMD model, ONL thickness; assay type: in vivo, mice
Text: In this example, the mechanism of photoreceptor cell death in dry AMD was investigated using a polyinosinic:polycytidylic acid (Poly I:C)-induced dry AMD model (Yang et al. (2009) NEJM 359(14):1456-63). Poly I:C is a synthetic double-stranded RNA (dsRNA) analog that activates toll-like receptor 3 (TLR3) signaling (FIG. 20A). Furthermore, dsRNA are known to exist in the drusen of human AMD patients. As depicted in FIG. 20A, activation of the TLR3 signaling results in activation of RIP-1 kinase pathway. […] In the experiments described herein, 2-3 μl of Poly I:C (1 mg/ml) was injected into the subretinal space of the eye (e.g., approximately 2-3 μg of Poly I:C was administered to the eye) to induce AMD.
The thickness of the outer nuclear layer (ONL) was also determined in WT or RIP-3−/− mice at 14 days following treatment with poly I:C. Sections were randomly selected from either WT or RIP-3−/− mice following poly I:C treatment and the retina was photographed. The ONL thickness was measured in each section by masked observers.
To determine the effect of Nec-1 and a pan-caspase inhibitor in the treatment of AMD, TUNEL assay was performed to assess photoreceptor cell death in the poly I:C induced AMD model. […] The thickness of ONL was also measured.

photoreceptors [2] = test: In vivo propidium iodide staining of photoreceptors after retinal detachment, wild-type retina; set-up: species or system mouse; settings: three days after retinal detachment
Method: In vivo propidium iodide (PI) staining was performed by injecting 5 μl of PI (50 μg/ml) into the subretinal space three days after retinal detachment. After two hours, the eyes were enucleated and 10 μm thick cryosections were cut, air-dried, and fixed in 100% ethanol. DAPI was used to counterstain the nuclei. The center of the detached retina was photographed by fluorescence microscope, and the number of PI-positive cells in ONL was analyzed by ImageJ software.
(*, P<0.05; **, P<0.01; scale bar, 100 μm.)

RIP-1 = biological target: T1, RIP-1 (Rattus norvegicus, UniProt D3ZYL0); test: RIP-1 phosphorylation after retinal detachment (RIP-1 immunoprecipitation, anti-phosphoserine Western blot); assay type: in vivo; settings: two days after retinal detachment; subretinal Z-VAD 300 μM and/or Nec-1 400 μM at detachment
T1 construct: RIP-1 was immunoprecipitated from lysates of untreated retina and of retina treated with either vehicle, Nec-1, Z-VAD, or Nec-1+Z-VAD; from tissue; host or cells: retina (retinal lysates) of animals with experimental retinal detachment
T1 sequence (D3ZYL0 1-658): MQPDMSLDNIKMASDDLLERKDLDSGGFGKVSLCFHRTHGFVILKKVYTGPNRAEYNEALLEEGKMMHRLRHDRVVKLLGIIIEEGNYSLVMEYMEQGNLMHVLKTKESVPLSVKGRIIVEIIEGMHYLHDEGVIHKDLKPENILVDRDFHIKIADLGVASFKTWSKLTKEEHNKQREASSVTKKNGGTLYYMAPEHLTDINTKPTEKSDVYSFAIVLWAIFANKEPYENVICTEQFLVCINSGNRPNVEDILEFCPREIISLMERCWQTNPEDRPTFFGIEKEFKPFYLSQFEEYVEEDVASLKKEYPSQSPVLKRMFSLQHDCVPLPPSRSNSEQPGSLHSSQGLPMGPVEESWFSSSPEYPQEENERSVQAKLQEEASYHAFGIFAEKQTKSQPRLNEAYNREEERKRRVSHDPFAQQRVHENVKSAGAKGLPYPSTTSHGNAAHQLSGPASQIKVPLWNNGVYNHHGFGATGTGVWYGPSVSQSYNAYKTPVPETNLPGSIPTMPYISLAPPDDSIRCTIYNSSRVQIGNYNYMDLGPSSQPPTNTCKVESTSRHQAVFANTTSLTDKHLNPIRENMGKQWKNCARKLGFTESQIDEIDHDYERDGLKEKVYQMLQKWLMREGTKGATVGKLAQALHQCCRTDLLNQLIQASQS
Method: Equal amount of retinal lysates (1 mg) were incubated with 1 μg anti-RIP-1 antibody (BD Biosciences) and 20 μl of Protein A/G Agarose beads (Thermo Scientific, Rockford, Ill.) at 4° C. overnight. Beads were washed 5 times with lysis buffer and TBS, and the immunopellets were then subjected to Western blotting.
RIP-1 is phosphorylated at several serine residues in its kinase domain during programmed necrosis and Nec-1 inhibits this phosphorylation (Degterev (2008) supra; Cho Y et al. (2009) Cell 137:1100-1111). To investigate the role of RIP-1 kinase in retinal detachment-induced photoreceptor death, the phosphorylation status of RIP-1 was first assessed by immunoprecipitating RIP-1 from the retina (FIG. 3A) and then blotting with an anti-phosphoserine antibody. RIP-1 was immunoprecipitated from retinal lysates. One mg of retinal lysates were incubated with anti-RIP-1 antibody and Protein A/G agarose beads. Extracts before (Pre) and after (Post) immunoprecipitation and the immunopellets (IP) were run on a 4-12% SDS-PAGE and blotted with anti-RIP-1 antibody. […]
To determine the effect of Nec-1 and a pan-caspase inhibitor on the phosphorylation of RIP-1, Z-VAD (300 μM) and/or a Nec-1 compound of Formula I-C (400 μM) were injected subretinally in the animal at the time of retinal detachment induction. […] Phosphorylation of RIP-1 was then assessed by Western blot analysis. […]

COC(=O)CC(NC(=O)C(C)NC(=O)C(NC(=O)OCc1ccccc1)C(C)C)C(=O)CF (stereo not drawn) [Z-VAD, Benzyloxycarbonyl-Val-Ala-Asp(OMe)-fluoromethylketone] (Cbz-Val-Ala-Asp(OMe)-CH2F; configuration not given here)
ONL thickness (photoreceptors [1]): minimal effect | number of PI-positive photoreceptors in the ONL (photoreceptors [2]): 817.4±104.2 cells/mm^2 | RIP-1 phosphorylation (RIP-1): elevated
